Molecules are shown by their SMILES.

In this test the target is T1, Human RORγ Ligand Binding Domain (RORγ-LBD) (Homo sapiens, UniProt P51449).
T1 construct: His6 with thrombin site) (N); made in house; host or cells: E. coli BL21(DE3), modified pET21a vector
T1 sequence (P51449 263-518): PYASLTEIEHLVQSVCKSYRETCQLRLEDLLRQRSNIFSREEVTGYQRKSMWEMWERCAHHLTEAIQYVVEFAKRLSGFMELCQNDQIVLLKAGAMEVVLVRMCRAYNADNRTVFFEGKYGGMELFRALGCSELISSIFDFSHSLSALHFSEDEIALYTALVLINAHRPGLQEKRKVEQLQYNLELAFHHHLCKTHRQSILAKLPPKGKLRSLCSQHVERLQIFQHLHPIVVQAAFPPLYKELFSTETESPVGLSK
As to the kind of experiment: Dual Fluorescence Energy Transfer (FRET) assay: co-activator SRC1(2) peptide interaction with RORγ-LBD. In kind it is biochemical. The settings on record: RORγ-LBD / SRC1(2) peptide, read-out: mean pIC50 (converted). An excerpt: Dual Fluorescence Energy Transfer (FRET) Assay
This assay is based on the knowledge that nuclear receptors interact with cofactors (transcription factors) in a ligand dependent manner. RORγ is a typical nuclear receptor in that it has an AF2 domain in the ligand binding domain (LBD) which interacts with co-activators.
This assay measures ligand-mediated interaction of the co-activator peptide with the purified bacterial-expressed RORγ ligand binding domain (RORγ-LBD) to indirectly assess ligand binding. RORγ has a basal level of interaction with the co-activator SRC1(2) in the absence of ligand, thus, it is possible to find ligands that inhibit or enhance the RORγ/SRC1(2) interaction.
Human RORγ Ligand Binding Domain (RORγ-LBD) was expressed in E. coli strain BL21(DE3) as an amino-terminal polyhistidine tagged fusion protein. DNA encoding this recombinant protein was sub-cloned into a modified pET21a expression vector (Novagen).
Approximately 50 g E. coli cell pellet was resuspended in 300 mL of lysis buffer (30 mM imidazole pH 7.0 and 150 mM NaCl). Cells were lysed by sonication and cell debris was removed by centrifugation for 30 minutes at 20,000 g at 4° C. […] The clarified lysate was loaded onto a column (XK-26) packed with ProBond Nickel Chelating resin (InVitrogen), pre-equilibrated with 30 mM imidazole pH 7.0 and 150 mM NaCl. After washing to baseline absorbance with the equilibration buffer, the column was developed with a gradient from 30 to 500 mM imidazole pH 7.0. Column fractions containing the RORγ-LBD protein were pooled and concentrated to a volume of 5 mLs. The concentrated protein was loaded onto a Superdex 200 column pre-equilibrated with 20 mM Tris-Cl pH 7.2 and 200 mM NaCl. The fractions containing the desired RORγ-LBD protein were pooled together.
Purified RORγ-LBD was buffer exchanged by exhaustive dialysis [3 changes of at least 20 volumes (>8000×)] against PBS [100 mM NaPhosphate, pH 8 and 150 mM NaCl]. […] The modified RORγ-LBD was dialyzed against 2 buffer changes—TBS pH 8.0 containing 5 mM DTT, 2 mM EDTA and 2% sucrose—each at least 20 times of the volume. The modified protein was distributed into aliquots, frozen on dry ice and stored at −80° C. The biotinylated RORγ-LBD was subjected to mass spectrometric analysis to reveal the extent of modification by the biotinylation reagent.
Biotinylated SRC1(2) solution was prepared by adding an appropriate amount of biotinylated SRC1(2) from the 100 uM stock solution to a buffer containing 10 mM of freshly added DTT from solid to give a final concentration of 40 nM. An appropriate amount of Europium labeled Streptavidin was then added to the biotinylated SRC1(2) solution in a tube to give a final concentration of 10 nM. The tube was inverted gently and incubated for 15 minutes at room temperature. Twenty-fold excess biotin from the 10 mM stock solution was added and the tube was inverted gently and incubated for 10 minutes at room temperature.
Biotinylated RORγ-LBD solution was prepared by adding an appropriate amount of biotinylated RORγ-LBD from the stock solution to a buffer containing 10 mM of freshly added DTT from solid to give a final concentration of 40 nM. An appropriate amount of APC labeled Streptavidin was then added to the biotinylated RORγ-LBD solution in a tube to give a final concentration of 20 nM. The tube was inverted gently and incubated for 15 minutes at room temperature. Twenty-fold excess biotin from the 10 mM stock solution was then added and the tube was inverted gently and incubated for 10 minutes at room temperature.
The reaction mixtures were incubated for 5 minutes. […] The plates were incubated for 1 hour and then read on ViewLux in Lance mode for EU/APC.

On to `CCc1ccc(N(CC(C)C)S(=O)(=O)c2ccc([C@@H](O)CN3CCOCC3)c(CO)c2)cc1` [Example E126, N-(4-ethylphenyl)-4-(1-hydroxy-2-morpholinoethyl)-3-(hydroxymethyl)-N-isobutylbenzenesulfonamide], for which the IC50 was 63.1 nM.

The values above are taken from US9428452B2, “Compounds” (Glaxo Group Limited, priority 2012, dated 2016).
